PMC12366332 (Applied and Environmental Microbiology, 2025)
Where two headings read alike, the source gives them in different places. Ends that are not written are not given here.

Tests used:
[1] = system: E. coli 0111:B4 LPS; format: biochemical, Escherichia coli
[2] = system: X. fastidiosa subsp. fastidiosa IVIA 5387.2; details: for EC50: 3 h
[3] = system: horse erythrocytes; details: red cells of horse, 50 µM
[4] = system: tobacco leaves; details: 150 µM; after 48 h

Row | Molecule | LPS neutralization Ratio (treatment/NTC) [1] | Bactericidal activity Level ([2]; 50 µM) | Bactericidal activity Reduction in viability (Log N0/N) ([2]; 50 µM) | Hemolytic activity (%) [3] | Phytotoxicity: diameter of the lesion [4] | also measured
1 | KKLFKKILKYL-NH2 [BP100] | 0,34 | Moderate (key: Very High: very high bactericidal activity (>2.5 log); High: high bactericidal activity (between 2.0 and 2.5 log); Moderate: a moderate activity (between 1.5 and 2.0 log); Low: low active (<1.5 log)) | 1,92 Log N0/N | – | – | –
2 | Ac-LKLFKKILKVL-NH2 [BP022] | 0,61 | Moderate (key: Very High: very high bactericidal activity (>2.5 log); High: high bactericidal activity (between 2.0 and 2.5 log); Moderate: a moderate activity (between 1.5 and 2.0 log); Low: low active (<1.5 log)) | 1,87 Log N0/N | – | – | –
3 | CCCC(=O)NCCCC[C@H](NC(=O)[C@H](CCCCN)NC(=O)[C@H](CC(C)C)NC(=O)[C@@H](NC(=O)[C@H](CCCCN)NC(=O)[C@H](CCCCN)NC(=O)[C@@H](Cc1ccccc1)NC(=O)[C@H](CC(C)C)NC(=O)[C@H](CCCCN)NC(=O)[C@H](CCCCN)NC(C)=O)[C@@H](C)CC)C(=O)N[C@@H](CC(C)C)C(N)=O [BP475, Ac-KKLfKKILKK(COC3H7)L-NH2] | – | High (key: Very High: very high bactericidal activity (>2.5 log); High: high bactericidal activity (between 2.0 and 2.5 log); Moderate: a moderate activity (between 1.5 and 2.0 log); Low: low active (<1.5 log)) | – | 0% | 4 mm | Bactericidal activity Reduction in viability (Log N0/N) ([2]; 12.5 µM): 1,04 Log N0/N
4 | CCCC(=O)NCCCC[C@H](NC(=O)[C@@H](NC(=O)[C@H](CCCCN)NC(=O)[C@H](CCCCN)NC(=O)[C@@H](Cc1ccccc1)NC(=O)[C@H](CC(C)C)NC(=O)[C@H](CCCCN)NC(=O)[C@H](CCCCN)NC(C)=O)[C@@H](C)CC)C(=O)N[C@@H](CCCCN)C(=O)N[C@@H](Cc1ccc(O)cc1)C(=O)N[C@@H](CC(C)C)C(N)=O [BP474, Ac-KKLfKKIK(COC3H7)KYL-NH2] | – | Moderate (key: Very High: very high bactericidal activity (>2.5 log); High: high bactericidal activity (between 2.0 and 2.5 log); Moderate: a moderate activity (between 1.5 and 2.0 log); Low: low active (<1.5 log)) | 1,76 Log N0/N | 0% | 2 mm | –
5 | CC[C@H](C)[C@H](NC(=O)CN)C(=O)NCC(=O)N[C@@H](C)C(=O)N[C@H](C(=O)N[C@@H](CC(C)C)C(=O)N[C@@H](CCCCN)C(=O)N[C@H](C(=O)N[C@@H](CC(C)C)C(=O)N[C@H](C(=O)N[C@H](C(=O)NCC(=O)N[C@@H](CC(C)C)C(=O)N1CCC[C@H]1C(=O)N[C@@H](C)C(=O)N[C@@H](CC(C)C)C(=O)N[C@H](C(=O)N[C@@H](CO)C(=O)N[C@@H](Cc1c[nH]c2ccccc12)C(=O)N[C@H](C(=O)N[C@@H](CCCCN)C(=O)N[C@@H](CCCNC(=N)N)C(=O)N[C@@H](CCCCN)C(=O)N[C@@H](CCCNC(=N)N)C(=O)N[C@@H](CCC(N)=O)C(=O)N[C@@H](CCC(N)=O)C(N)=O)[C@@H](C)CC)[C@@H](C)CC)[C@@H](C)O)[C@@H](C)O)C(C)C)C(C)C [Melittin, reference compound] | – | – | – | – | 10 mm | –
6 | KKLFKKILKFL-NH2 [BP076] | 0,36 | – | 0,91 Log N0/N | – | – | –
7 | KKLFKkILKYL-NH2 [BP146] | 0,73 | – | 1,25 Log N0/N | – | – | –
8 | KKLFKKILKVL-NH2 [BP015] | 1,10 | – | 1,13 Log N0/N | – | – | –
9 | KKLfKKILKYL-NH2 [BP143] | 0,70 | – | 0,89 Log N0/N | – | – | –
10 | CCCC(=O)N[C@@H](CCCCN)C(=O)N[C@@H](CCCCN)C(=O)N[C@@H](CC(C)C)C(=O)N[C@H](Cc1ccccc1)C(=O)N[C@@H](CCCCN)C(=O)N[C@@H](CCCCN)C(=O)N[C@H](C(=O)N[C@@H](CC(C)C)C(=O)N[C@@H](CCCCN)C(=O)N[C@@H](Cc1ccc(O)cc1)C(=O)N[C@@H](CC(C)C)C(N)=O)[C@@H](C)CC [BP485, C3H7CO-KKLfKKILKYL-NH2] | – | Moderate (key: Very High: very high bactericidal activity (>2.5 log); High: high bactericidal activity (between 2.0 and 2.5 log); Moderate: a moderate activity (between 1.5 and 2.0 log); Low: low active (<1.5 log)) | 1,92 Log N0/N | 3% | 3 mm | Bactericidal activity Reduction in viability (Log N0/N) ([2]; 12.5 µM): 0,49 Log N0/N
11 | KKLFKKILKKL-NH2 [BP016] | 1,13 | – | 0,00 Log N0/N | – | – | –
12 | FKLFKKILKVL-NH2 [BP013] | 1,13 | – | 1,03 Log N0/N | – | – | –
13 | CCCCCCCCCCCC(=O)NCCCC[C@H](NC(=O)[C@H](CCCCN)NC(C)=O)C(=O)N[C@@H](CC(C)C)C(=O)N[C@@H](Cc1ccccc1)C(=O)N[C@@H](CCCCN)C(=O)N[C@@H](CCCCN)C(=O)N[C@H](C(=O)N[C@@H](CC(C)C)C(=O)N[C@@H](CCCCN)C(=O)N[C@@H](Cc1ccc(O)cc1)C(=O)N[C@@H](CC(C)C)C(N)=O)[C@@H](C)CC [BP393, Ac-KK(COC11H23)LFKKILKYL-NH2] | – | High (key: Very High: very high bactericidal activity (>2.5 log); High: high bactericidal activity (between 2.0 and 2.5 log); Moderate: a moderate activity (between 1.5 and 2.0 log); Low: low active (<1.5 log)) | – | – | 6 mm | EC50 [2]: 20.1 µM
14 | CCCC(=O)NCCCC[C@H](NC(=O)[C@H](CCCCN)NC(=O)[C@H](CC(C)C)NC(=O)[C@@H](NC(=O)[C@H](CCCCN)NC(=O)[C@H](CCCCN)NC(=O)[C@H](Cc1ccccc1)NC(=O)[C@H](CC(C)C)NC(=O)[C@H](CCCCN)NC(=O)[C@H](CCCCN)NC(C)=O)[C@@H](C)CC)C(=O)N[C@@H](CC(C)C)C(N)=O [BP389, Ac-KKLFKKILKK(COC3H7)L-NH2] | – | High (key: Very High: very high bactericidal activity (>2.5 log); High: high bactericidal activity (between 2.0 and 2.5 log); Moderate: a moderate activity (between 1.5 and 2.0 log); Low: low active (<1.5 log)) | – | 9% | 7 mm | Bactericidal activity Reduction in viability (Log N0/N) ([2]; 3.1 µM): 0,02 Log N0/N; Bactericidal activity Reduction in viability (Log N0/N) ([2]; 12.5 µM): 1,51 Log N0/N
15 | CCCCCCCCCCCC(=O)NCCCC[C@H](NC(=O)[C@H](CCCCN)NC(=O)[C@H](CCCCN)NC(C)=O)C(=O)N[C@H](Cc1ccccc1)C(=O)N[C@@H](CCCCN)C(=O)N[C@@H](CCCCN)C(=O)N[C@H](C(=O)N[C@@H](CC(C)C)C(=O)N[C@@H](CCCCN)C(=O)N[C@@H](Cc1ccc(O)cc1)C(=O)N[C@@H](CC(C)C)C(N)=O)[C@@H](C)CC [BP500, Ac-KKK(COC11H23)fKKILKYL-NH2] | – | Low (key: Very High: very high bactericidal activity (>2.5 log); High: high bactericidal activity (between 2.0 and 2.5 log); Moderate: a moderate activity (between 1.5 and 2.0 log); Low: low active (<1.5 log)) | 1,37 Log N0/N | 99% | 8 mm | –
16 | CCCC(=O)NCCCC[C@H](NC(=O)[C@H](CCCCN)NC(=O)[C@@H](Cc1ccccc1)NC(=O)[C@H](CC(C)C)NC(=O)[C@H](CCCCN)NC(=O)[C@H](CCCCN)NC(C)=O)C(=O)N[C@H](C(=O)N[C@@H](CC(C)C)C(=O)N[C@@H](CCCCN)C(=O)N[C@@H](Cc1ccc(O)cc1)C(=O)N[C@@H](CC(C)C)C(N)=O)[C@@H](C)CC [BP473, Ac-KKLfKK(COC3H7)ILKYL-NH2] | – | Very High (key: Very High: very high bactericidal activity (>2.5 log); High: high bactericidal activity (between 2.0 and 2.5 log); Moderate: a moderate activity (between 1.5 and 2.0 log); Low: low active (<1.5 log)) | – | 7% | 4 mm | Bactericidal activity Reduction in viability (Log N0/N) ([2]; 3.1 µM): 0,64 Log N0/N; EC50 [2]: 4.75 µM
17 | CCCC(=O)NCCCC[C@H](NC(=O)[C@@H](NC(=O)[C@H](CCCCN)NC(=O)[C@H](CCCCN)NC(=O)[C@H](Cc1ccccc1)NC(=O)[C@H](CC(C)C)NC(=O)[C@H](CCCCN)NC(=O)[C@H](CCCCN)NC(C)=O)[C@@H](C)CC)C(=O)N[C@@H](CCCCN)C(=O)N[C@@H](Cc1ccc(O)cc1)C(=O)N[C@@H](CC(C)C)C(N)=O [BP387, Ac‐KKLFKKIK(COC3H7)KYL‐NH2] | – | Moderate (key: Very High: very high bactericidal activity (>2.5 log); High: high bactericidal activity (between 2.0 and 2.5 log); Moderate: a moderate activity (between 1.5 and 2.0 log); Low: low active (<1.5 log)) | 1,96 Log N0/N | 4% | 8 mm | Bactericidal activity Reduction in viability (Log N0/N) ([2]; 12.5 µM): 0,83 Log N0/N
18 | RKVRGPP-NH2 [Lf(28-34), RKVRGPP-NH2, reference compound] | – | – | – | 1% | 0 mm | –
19 | CF-KKLfKK(COC3H7)ILKYL-NH2 [BP473-CF] | – | – | – | – | – | Bactericidal activity Reduction in viability (Log N0/N) [2]: 0,91 Log N0/N
20 | c(LLKKKWKKLQ) (cyclic) [BPC098W] | 0,83 | Low (key: Very High: very high bactericidal activity (>2.5 log); High: high bactericidal activity (between 2.0 and 2.5 log); Moderate: a moderate activity (between 1.5 and 2.0 log); Low: low active (<1.5 log)) | 0,78 Log N0/N | – | – | –
21 | KkLFKKILKYL-NH2 [BP145] | 0,76 | – | 1,08 Log N0/N | – | – | –
22 | KKVVFWVKFk-NH2 [BP442] | 0,76 | Low (key: Very High: very high bactericidal activity (>2.5 log); High: high bactericidal activity (between 2.0 and 2.5 log); Moderate: a moderate activity (between 1.5 and 2.0 log); Low: low active (<1.5 log)) | 1,09 Log N0/N | – | – | –
23 | KKlFKKILKYL-NH2 [BP144] | 1,07 | – | 0,68 Log N0/N | – | – | –
